Source: patent US7528138B2, “Pyrazolo[1,5-a]pyrimidines useful as inhibitors of protein kinases” (Vertex Pharmaceuticals Incorporated, priority 2004, dated 2009)

What was measured:
Type in all cases: biochemical
Itk = target: T1, Itk (Homo sapiens, UniProt Q08881); experiment: ITK Inhibition Assay (Radiometric), radioactive-phosphate incorporation; details: enzyme inhibition data (Ki), Table 11; radiometric or UV assay not stated
T1 sequence (Q08881 1-620): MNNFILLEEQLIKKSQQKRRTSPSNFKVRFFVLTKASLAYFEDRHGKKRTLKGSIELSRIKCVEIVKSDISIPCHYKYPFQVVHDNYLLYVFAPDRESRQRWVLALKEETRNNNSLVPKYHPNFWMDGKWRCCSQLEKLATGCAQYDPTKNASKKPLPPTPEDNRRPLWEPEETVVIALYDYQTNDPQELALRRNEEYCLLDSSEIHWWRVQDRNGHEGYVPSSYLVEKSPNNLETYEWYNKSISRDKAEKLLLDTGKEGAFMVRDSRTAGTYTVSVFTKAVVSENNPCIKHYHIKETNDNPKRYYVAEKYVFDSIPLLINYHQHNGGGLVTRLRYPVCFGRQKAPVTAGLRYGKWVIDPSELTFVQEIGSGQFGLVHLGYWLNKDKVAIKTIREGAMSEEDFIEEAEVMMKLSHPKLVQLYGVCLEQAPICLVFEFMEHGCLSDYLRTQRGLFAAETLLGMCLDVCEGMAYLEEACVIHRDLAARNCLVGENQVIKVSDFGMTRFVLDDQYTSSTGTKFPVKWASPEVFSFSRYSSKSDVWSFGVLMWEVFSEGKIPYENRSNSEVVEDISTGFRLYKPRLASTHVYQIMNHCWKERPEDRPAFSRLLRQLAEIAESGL
Procedure, shortened: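 Radiometric 33P incorporation into SAM68 peptide (D332-443) with filter capture and scintillation counting; 10 min pre-incubation then 10 min reaction at 25° C. IC50 format: 30 nM Itk, 15 μM ATP, 2 μM peptide, HEPES pH 7.5. Ki(app) format: 50 nM Itk, 7.5 μM ATP, 3 μM peptide, MOPS pH 7.0.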

Aurora-2 = target: T2, Aurora-2 (Homo sapiens, UniProt O14965); experiment: Aurora-A (Aurora-2) Inhibition Assay, coupled enzyme assay; details: enzyme inhibition data (Ki), Table 11; read-out: AurA Ki
T2 sequence (O14965 1-403): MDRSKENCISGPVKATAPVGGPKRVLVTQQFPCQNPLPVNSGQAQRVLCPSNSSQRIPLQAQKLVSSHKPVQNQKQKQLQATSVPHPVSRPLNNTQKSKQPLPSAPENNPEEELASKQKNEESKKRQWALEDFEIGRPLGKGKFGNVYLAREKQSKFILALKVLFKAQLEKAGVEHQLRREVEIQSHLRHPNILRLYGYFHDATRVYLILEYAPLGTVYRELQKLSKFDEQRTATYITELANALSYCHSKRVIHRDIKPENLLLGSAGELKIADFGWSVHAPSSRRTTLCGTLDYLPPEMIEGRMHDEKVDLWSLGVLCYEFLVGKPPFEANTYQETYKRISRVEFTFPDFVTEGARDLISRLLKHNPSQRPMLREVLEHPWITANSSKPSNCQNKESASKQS
Protocol: Compounds are screened for their ability to inhibit Aurora-2 using a standard coupled enzyme assay (Fox et al., Protein Sci., (1998) 7, 2249). Assays are carried out in a mixture of 100 mM Hepes (pH7.5), 10 mM MgCl2, 1 mM DTT, 25 mM NaCl, 2.5 mM phosphoenolpyruvate, 300 μM NADH, 30 μg/ml pyruvate kinase and 10 μg/ml lactate dehydrogenase. Final substrate concentrations in the assay are 400 μM ATP (Sigma Chemicals) and 570 μM peptide (Kemptide, American Peptide, Sunnyvale, Calif.). Assays are carried out at 30° C. and in the presence of 40 nM Aurora-2.
An assay stock buffer solution is prepared containing all of the reagents listed above, with the exception of Aurora-2 and the test compound of interest. 55 μl of the stock solution is placed in a 96 well plate followed by addition of 2 μl of DMSO stock containing serial dilutions of the test compound (typically starting from a final concentration of 7.5 μM). The plate is preincubated for 10 minutes at 30° C. and the reaction initiated by addition of 10 μl of Aurora-2. Initial reaction rates are determined with a Molecular Devices SpectraMax Plus plate reader over a 10 minute time course. IC50 and Ki data are calculated from non-linear regression analysis using the Prism software package (GraphPad Prism version 3.0cx for Macintosh, GraphPad Software, San Diego Calif., USA).

c-Met = c-Met (Homo sapiens, UniProt P08581); experiment: c-Met Inhibition Assay, coupled enzyme system; details: enzyme inhibition data (Ki), Table 11
Procedure, shortened: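 Pyruvate kinase/lactate dehydrogenase-coupled NADH assay in HEPES pH 7.5 with 80 nM c-Met, 200 μM ATP and 10 μM polyGluTyr at 30° C. Compound (0.006–12.5 μM final, 12-point) preincubated 10 min before ATP start; rates over 10 min gave Ki.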

JAK3 = target: T3, JAK3 (Homo sapiens, UniProt P52333); experiment: JAK3 Inhibition Assay, 33P incorporation; details: enzyme inhibition data (Ki), Table 11
T3 sequence (P52333 1-1124): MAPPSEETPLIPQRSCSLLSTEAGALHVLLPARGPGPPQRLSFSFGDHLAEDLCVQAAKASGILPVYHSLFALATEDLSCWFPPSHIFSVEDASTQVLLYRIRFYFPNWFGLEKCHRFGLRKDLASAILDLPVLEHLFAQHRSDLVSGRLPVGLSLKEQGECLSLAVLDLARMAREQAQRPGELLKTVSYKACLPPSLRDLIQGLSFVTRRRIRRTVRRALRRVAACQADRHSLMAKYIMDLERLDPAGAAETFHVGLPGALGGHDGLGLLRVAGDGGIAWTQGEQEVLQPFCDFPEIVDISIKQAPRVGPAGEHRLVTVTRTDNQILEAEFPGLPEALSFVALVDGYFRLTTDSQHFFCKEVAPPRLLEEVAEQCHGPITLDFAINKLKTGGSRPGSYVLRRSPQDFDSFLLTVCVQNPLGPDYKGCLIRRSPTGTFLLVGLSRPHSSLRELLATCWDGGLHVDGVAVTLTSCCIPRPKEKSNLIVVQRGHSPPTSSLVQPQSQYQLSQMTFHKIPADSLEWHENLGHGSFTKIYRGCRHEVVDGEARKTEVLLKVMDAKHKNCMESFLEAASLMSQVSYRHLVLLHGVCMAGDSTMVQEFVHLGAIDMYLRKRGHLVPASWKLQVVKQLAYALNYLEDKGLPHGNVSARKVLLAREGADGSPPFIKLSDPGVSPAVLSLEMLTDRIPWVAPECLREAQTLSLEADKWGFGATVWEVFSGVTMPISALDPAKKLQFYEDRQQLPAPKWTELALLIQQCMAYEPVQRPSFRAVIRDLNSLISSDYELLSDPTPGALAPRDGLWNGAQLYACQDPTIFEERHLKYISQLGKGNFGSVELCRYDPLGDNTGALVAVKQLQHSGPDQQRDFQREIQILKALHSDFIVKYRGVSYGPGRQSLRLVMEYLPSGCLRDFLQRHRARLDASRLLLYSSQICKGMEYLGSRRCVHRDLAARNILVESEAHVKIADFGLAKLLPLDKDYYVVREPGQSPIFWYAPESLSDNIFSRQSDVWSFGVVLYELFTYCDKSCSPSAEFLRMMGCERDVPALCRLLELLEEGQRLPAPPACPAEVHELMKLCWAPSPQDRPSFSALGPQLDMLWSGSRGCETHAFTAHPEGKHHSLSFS
Procedure, shortened: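 33P incorporation into 1 μM poly(Glu)4Tyr was counted after TCA stop and glass fiber filtration. The 20 min reaction ran at 25 °C with 1 nM JAK3 and 5 μM ATP (200 uCi/μmole). Buffer was 100 mM HEPES pH 7.4, 10 mM MgCl2, 25 mM NaCl, 1 mM DTT, 0.01% BSA.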

Sequence of c-Met (P08581 25-1390): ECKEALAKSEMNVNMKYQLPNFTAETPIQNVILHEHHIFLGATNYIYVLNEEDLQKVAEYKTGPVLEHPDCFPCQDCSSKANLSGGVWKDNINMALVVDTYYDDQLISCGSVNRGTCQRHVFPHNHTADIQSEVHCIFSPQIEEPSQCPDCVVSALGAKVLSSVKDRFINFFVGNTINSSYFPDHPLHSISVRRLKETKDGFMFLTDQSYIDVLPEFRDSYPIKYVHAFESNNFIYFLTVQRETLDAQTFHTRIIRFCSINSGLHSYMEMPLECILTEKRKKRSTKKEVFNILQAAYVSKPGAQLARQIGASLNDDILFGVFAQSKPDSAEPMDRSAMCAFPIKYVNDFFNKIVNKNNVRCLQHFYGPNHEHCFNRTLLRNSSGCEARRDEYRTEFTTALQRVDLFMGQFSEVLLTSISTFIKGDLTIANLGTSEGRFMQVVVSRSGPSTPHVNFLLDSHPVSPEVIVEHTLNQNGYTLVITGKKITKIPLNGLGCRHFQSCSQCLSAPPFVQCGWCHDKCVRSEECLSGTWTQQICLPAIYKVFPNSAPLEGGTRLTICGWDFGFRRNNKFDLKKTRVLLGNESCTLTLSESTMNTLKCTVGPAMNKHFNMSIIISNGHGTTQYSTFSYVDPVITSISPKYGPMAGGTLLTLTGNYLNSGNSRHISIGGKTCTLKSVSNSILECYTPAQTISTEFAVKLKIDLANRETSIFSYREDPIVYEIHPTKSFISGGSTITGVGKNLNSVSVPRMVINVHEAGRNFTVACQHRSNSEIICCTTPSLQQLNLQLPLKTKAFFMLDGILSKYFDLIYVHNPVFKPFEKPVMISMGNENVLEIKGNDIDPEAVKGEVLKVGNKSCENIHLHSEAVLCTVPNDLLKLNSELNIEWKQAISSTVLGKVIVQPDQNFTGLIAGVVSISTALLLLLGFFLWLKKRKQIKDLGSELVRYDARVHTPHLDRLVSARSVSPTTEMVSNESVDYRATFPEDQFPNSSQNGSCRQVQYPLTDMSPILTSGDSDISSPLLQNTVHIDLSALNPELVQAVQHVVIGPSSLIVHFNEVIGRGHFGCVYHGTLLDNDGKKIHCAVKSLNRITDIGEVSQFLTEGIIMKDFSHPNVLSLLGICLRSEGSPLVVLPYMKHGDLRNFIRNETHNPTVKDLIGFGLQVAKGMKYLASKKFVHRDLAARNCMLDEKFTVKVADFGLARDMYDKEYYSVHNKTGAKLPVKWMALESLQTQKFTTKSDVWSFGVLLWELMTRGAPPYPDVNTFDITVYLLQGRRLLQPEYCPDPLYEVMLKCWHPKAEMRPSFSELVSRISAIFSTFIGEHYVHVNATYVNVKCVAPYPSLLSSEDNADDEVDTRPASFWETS

SMILES	Ki (Itk) [nM]	Ki (Aurora-2) [nM]	Ki (c-Met) [nM]	Ki (JAK3) [nM]
Cc1cnc2c(-c3cc(N4CCCC(CO)C4)ncn3)c(N)nn2c1 (centres unmarked) [Compound V-340]	500 to 5000		< 500	500 to 5000
Cc1cnc2c(-c3cc(N4CCC(C(N)=O)CC4)ncn3)c(N)nn2c1 [Compound V-341]	500 to 5000		500 to 5000	500 to 5000
Cc1cnc2c(-c3cc(N4CCCC(O)C4)ncn3)c(N)nn2c1 (centres unmarked) [Compound V-342]	500 to 5000		< 500	500 to 5000
Cc1cnc2c(-c3cc(N4CCC(NC(=O)C(F)(F)F)C4)ncn3)c(N)nn2c1 (centres unmarked) [Compound V-343]	500 to 5000		500 to 5000	500 to 5000

More lines, now with the values ahead:

Ki (Itk) [nM]	Ki (Aurora-2) [nM]	Ki (c-Met) [nM]	Ki (JAK3) [nM]	SMILES
< 500	< 500			CC(C)(C)OC(=O)NCc1ccc(-c2cnc3c(-c4ccccn4)c(N)nn3c2)cc1 [Compound V-192]
< 500	< 500	< 500		Nc1nn2cc(-c3ccc(CN4CCCNCC4)cc3)cnc2c1-c1ccccn1 [Compound V-224]
< 500		< 500	< 500	Cc1cnc2c(-c3cc(NC4CCNC4)ncn3)c(N)nn2c1 (centres unmarked) [Compound V-337]
< 500		< 500	< 500	Cc1cnc2c(-c3cc(N4CCCC(C)C4)ncn3)c(N)nn2c1 (centres unmarked) [Compound V-339]
